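Values below derive from 48-hour exposures of cells grown in 96-well plates, with endpoints linearly interpolated between the two concentrations bracketing the appropriate inhibition level. TGI marks complete inhibition of growth.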 Bounds are passed on as bounds.

The subject of the first assay is RPMI-8226 leukemia. Briefly: NCI-60 cell line screen, 48 h.
`O=P(c1ccccc1)(c1ccccc1)N1O[C@@H](c2ccccc2)C=C[C@H]1c1ccccc1`: the TGI amounted to 56.6 µM.
Still for that read-out and setting: the result for `COC(=O)[C@]12CC[C@H]3CN(C(=O)OCc4ccccc4)[C@H]([C@H]31)[C@H](c1ccco1)N2S(=O)(=O)c1ccc(C)cc1` reads 35.9 µM; that for `CCCNC(=O)CCC(C)[C@H]1CCC2C3C(C[C@H](OC(C)=O)[C@@]21C)[C@@]1(C)CCC2(C[C@H]1C[C@H]3OC(C)=O)OOC1(CCC(C)CC1)OO2` (stereo not given in full), 19.4 µM.
`CCCn1c(CN(Cc2nc3ccccc3n2CCC)Cc2nc3ccccc3n2CCC)nc2ccccc21` showed a TGI of 5.36 µM.
The same measure, in the same setting: the result for `NNC(=O)c1ccc[n+](CCc2ccccc2)c1` reads over 100 µM; that for `COc1cc(NS(C)(=O)=O)ccc1N1Cc2cnc3ccc4[nH]c(C)cc1c4c23`, 88.2 µM.
On the same count and under the same terms, the result for `C=C[C@@H]1C(CO)=CCC2[C@H]1CCC1C(C)(C)C(=O)CC[C@]21C` (stereo not given in full) reads over 100 µM.
Regarding `COc1ccc2cc3c4cc5c(cc4cc[n+]3cc2c1OC)OCO5`, the TGI turned out to be 35.1 µM.
On the same count and under the same terms, the result for `C/C(CC1C2CCCC1C2)=N\NC(N)=O` (stereo not given) reads over 100 µM; that for `N#CC(C#N)=CNC(=S)c1ccncc1`, over 100 µM.
Compound `C1=CC2=CC=CC3c4nc5ccc6ccccc6c5nc4C(=C1)C23` (stereo not given) registered a TGI of over 100 µM.
For `O=c1cc(N=P(c2ccccc2)(c2ccccc2)c2ccccc2)n(-c2ccccc2)c(=O)n1-c1ccccc1`, the TGI came to 33 µM.
The same measure, in the same setting: to `O=C(NCCCN(CCCCN(CCCNC(=O)C(F)(F)F)Cc1ccccc1)Cc1ccccc1)C(F)(F)F` belongs 40.5 µM; to `COc1ccc(C2(CC(C)O)SCCCS2)cc1` (stereo not given), over 100 µM; to `Clc1ccc(-c2nn3c(-c4ccncc4)nnc3s2)cc1`, over 100 µM.
Same read-out and setting: to `COc1ccc(C(OCC2OC(n3cc(C)c(=O)[nH]c3=O)CC2n2cc(Cn3cc(F)c(=O)[nH]c3=O)nn2)(c2ccccc2)c2ccccc2)cc1` (stereo not given) belongs 8.93 µM; to `C=CCn1c(=O)ccn(COCCO)c1=O`, over 100 µM.
The compound `Oc1ccccc1/C=N/c1nc2cc3sc(/N=C/c4ccccc4O)nc3cc2s1` yielded a TGI of over 100 µM.
Regarding `CCCCC1c2c([nH]c3ccccc23)C2C(=O)N(c3ccc(OC)cc3)C(=O)C2C1CCC` (stereo not given), the TGI stood at 8.99 µM.
`CCN(CC)CCOc1ccc(N2C(=O)c3cc(OC)c(OC)cc3C2=O)cc1` had a TGI of over 100 µM.
`C(=N\NC1=NCCCN1)/c1ccc2ccccc2c1` yielded a TGI of 28.3 µM.
`O=C(N=Nc1cc(Cl)ccc1Cl)NNc1cc(Cl)ccc1Cl`: the TGI turned out to be 33.8 µM.
`COc1ccc(C#CC(=O)O)c(OC)c1` registered a TGI of over 100 µM.
The same measure, in the same setting: to `CCOC(=O)NC(=S)NN(C)C1=NCC(C)(C)S1` belongs over 100 µM; to `O=c1c2cc3c(cc2[nH]c2ncccc12)OCO3`, over 10 µM.
In turn, `Cc1csc(-c2cn(C)c3c2C(=O)C(N)=CC3=O)n1` gave a TGI of over 22.8 µM.

The test system of a further assay is SK-MEL-5 melanoma. Briefly: NCI-60 cell line screen, 48 h.
In turn, `O=P(c1ccccc1)(c1ccccc1)N1O[C@@H](c2ccccc2)C=C[C@H]1c1ccccc1` came in with a TGI of 24.6 µM.
The same measure, in the same setting: the result for `COC(=O)[C@]12CC[C@H]3CN(C(=O)OCc4ccccc4)[C@H]([C@H]31)[C@H](c1ccco1)N2S(=O)(=O)c1ccc(C)cc1` reads 33.3 µM; that for `CCCNC(=O)CCC(C)[C@H]1CCC2C3C(C[C@H](OC(C)=O)[C@@]21C)[C@@]1(C)CCC2(C[C@H]1C[C@H]3OC(C)=O)OOC1(CCC(C)CC1)OO2` (stereo not given in full), 28.6 µM; that for `CCCn1c(CN(Cc2nc3ccccc3n2CCC)Cc2nc3ccccc3n2CCC)nc2ccccc21`, 18.1 µM.
Same read-out and setting: the result for `CSc1c(C#N)c(N)n2c1C(=O)N(c1ccccc1)C2=S` reads over 100 µM; that for `NNC(=O)c1ccc[n+](CCc2ccccc2)c1`, over 100 µM.
On the same count and under the same terms, to `COc1cc(NS(C)(=O)=O)ccc1N1Cc2cnc3ccc4[nH]c(C)cc1c4c23` belongs over 100 µM; to `C=C[C@@H]1C(CO)=CCC2[C@H]1CCC1C(C)(C)C(=O)CC[C@]21C` (stereo not given in full), over 100 µM.
In turn, `COc1ccc2cc3c4cc5c(cc4cc[n+]3cc2c1OC)OCO5` displayed a TGI of 14.1 µM.
Same read-out and setting: the result for `CCN(CCO)CC1COc2ccccc2O1` (stereo not given) reads over 100 µM.
On the same count and under the same terms, to `C/C(CC1C2CCCC1C2)=N\NC(N)=O` (stereo not given) belongs over 100 µM.
`N#CC(C#N)=CNC(=S)c1ccncc1` showed a TGI of over 100 µM.
As to `C1=CC2=CC=CC3c4nc5ccc6ccccc6c5nc4C(=C1)C23` (stereo not given), the TGI was over 100 µM.
`O=c1cc(N=P(c2ccccc2)(c2ccccc2)c2ccccc2)n(-c2ccccc2)c(=O)n1-c1ccccc1` came in with a TGI of 24.1 µM.
For `O=C(NCCCN(CCCCN(CCCNC(=O)C(F)(F)F)Cc1ccccc1)Cc1ccccc1)C(F)(F)F`, the TGI stood at 14.9 µM.
Turning to `COc1ccc(C2(CC(C)O)SCCCS2)cc1` (stereo not given), the TGI is over 100 µM.
With `Clc1ccc(-c2nn3c(-c4ccncc4)nnc3s2)cc1`, the TGI is over 100 µM.
Regarding `O=C1/C(=C\c2cccc(Oc3ccccc3)c2)S(=O)(=O)C(c2ccccc2)N1Cc1ccccc1` (stereo not given), the TGI came to 39.3 µM.
Same read-out and setting: the result for `COc1ccc(C(OCC2OC(n3cc(C)c(=O)[nH]c3=O)CC2n2cc(Cn3cc(F)c(=O)[nH]c3=O)nn2)(c2ccccc2)c2ccccc2)cc1` (stereo not given) reads 30.1 µM; that for `Cc1ccccc1C(O)(c1nccn1C)c1nccn1C`, over 100 µM.
Take `C=CCn1c(=O)ccn(COCCO)c1=O`: the TGI is over 100 µM.
Same read-out and setting: the result for `Oc1ccccc1/C=N/c1nc2cc3sc(/N=C/c4ccccc4O)nc3cc2s1` reads over 100 µM; that for `CCCCC1c2c([nH]c3ccccc23)C2C(=O)N(c3ccc(OC)cc3)C(=O)C2C1CCC` (stereo not given), over 10 µM; that for `CCN(CC)CCOc1ccc(N2C(=O)c3cc(OC)c(OC)cc3C2=O)cc1`, over 100 µM.
Regarding `C(=N\NC1=NCCCN1)/c1ccc2ccccc2c1`, the TGI was found to be 10.3 µM.
On the same count and under the same terms, the result for `O=C(N=Nc1cc(Cl)ccc1Cl)NNc1cc(Cl)ccc1Cl` reads 25.3 µM; that for `COc1ccc(C#CC(=O)O)c(OC)c1`, over 100 µM; that for `CCOC(=O)NC(=S)NN(C)C1=NCC(C)(C)S1`, over 100 µM.
Compound `O=c1c2cc3c(cc2[nH]c2ncccc12)OCO3` yielded a TGI of over 10 µM.
`Cc1csc(-c2cn(C)c3c2C(=O)C(N)=CC3=O)n1` displayed a TGI of 3.27 µM.

The test system of the next assay is U251 CNS. The experiment in a line: NCI-60 cell line screen, 48 h.
`O=P(c1ccccc1)(c1ccccc1)N1O[C@@H](c2ccccc2)C=C[C@H]1c1ccccc1` returned a TGI of 16.9 µM.
As for `COC(=O)[C@]12CC[C@H]3CN(C(=O)OCc4ccccc4)[C@H]([C@H]31)[C@H](c1ccco1)N2S(=O)(=O)c1ccc(C)cc1`, the TGI was determined as 71.4 µM.
Consider `CCCNC(=O)CCC(C)[C@H]1CCC2C3C(C[C@H](OC(C)=O)[C@@]21C)[C@@]1(C)CCC2(C[C@H]1C[C@H]3OC(C)=O)OOC1(CCC(C)CC1)OO2` (stereo not given in full), for which the TGI was found to be 30.6 µM.
For the compound `CCCn1c(CN(Cc2nc3ccccc3n2CCC)Cc2nc3ccccc3n2CCC)nc2ccccc21`, the TGI is over 100 µM.
`CSc1c(C#N)c(N)n2c1C(=O)N(c1ccccc1)C2=S`: the TGI was over 100 µM.
The same measure, in the same setting: to `NNC(=O)c1ccc[n+](CCc2ccccc2)c1` belongs over 100 µM; to `COc1cc(NS(C)(=O)=O)ccc1N1Cc2cnc3ccc4[nH]c(C)cc1c4c23`, over 100 µM.
The same measure, in the same setting: to `C=C[C@@H]1C(CO)=CCC2[C@H]1CCC1C(C)(C)C(=O)CC[C@]21C` (stereo not given in full) belongs over 100 µM; to `COc1ccc2cc3c4cc5c(cc4cc[n+]3cc2c1OC)OCO5`, 15.3 µM.

For the origin of these results see PubChem BioAssay (NCI).
